{"source": "patent US10689354B2", "about": "“Aminoazole derivative” (Teijin Pharma Limited, priority 2015, dated 2020)", "key": {"human androgen receptor": {"target": "T1, human androgen receptor (Homo sapiens, UniProt P10275)", "T1 construct": "expressed in transfected cells; host or cells: HEK293", "T1 sequence (P10275 1-920)": "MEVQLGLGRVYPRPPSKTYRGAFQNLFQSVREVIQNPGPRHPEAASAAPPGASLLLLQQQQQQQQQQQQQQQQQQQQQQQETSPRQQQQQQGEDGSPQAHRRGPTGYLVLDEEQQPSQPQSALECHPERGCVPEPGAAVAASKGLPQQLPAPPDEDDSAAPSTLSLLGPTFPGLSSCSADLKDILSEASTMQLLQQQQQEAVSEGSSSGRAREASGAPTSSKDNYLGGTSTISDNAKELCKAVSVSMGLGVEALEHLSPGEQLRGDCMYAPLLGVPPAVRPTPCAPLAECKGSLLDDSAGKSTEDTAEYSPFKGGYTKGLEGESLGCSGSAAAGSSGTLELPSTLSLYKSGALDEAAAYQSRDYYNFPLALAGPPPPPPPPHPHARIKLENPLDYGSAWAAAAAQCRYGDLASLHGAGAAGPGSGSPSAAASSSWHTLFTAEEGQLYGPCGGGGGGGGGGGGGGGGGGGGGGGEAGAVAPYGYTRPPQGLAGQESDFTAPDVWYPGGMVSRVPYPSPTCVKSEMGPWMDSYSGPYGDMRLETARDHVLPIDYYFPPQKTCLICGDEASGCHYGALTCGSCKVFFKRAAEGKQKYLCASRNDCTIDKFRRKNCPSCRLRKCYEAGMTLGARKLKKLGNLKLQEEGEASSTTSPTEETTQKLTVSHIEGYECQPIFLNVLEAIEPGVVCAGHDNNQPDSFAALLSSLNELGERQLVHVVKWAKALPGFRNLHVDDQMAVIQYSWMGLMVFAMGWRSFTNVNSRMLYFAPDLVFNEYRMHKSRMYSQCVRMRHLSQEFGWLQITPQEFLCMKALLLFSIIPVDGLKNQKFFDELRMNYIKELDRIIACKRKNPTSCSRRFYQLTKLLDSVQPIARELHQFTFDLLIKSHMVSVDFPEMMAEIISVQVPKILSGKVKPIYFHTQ", "experiment": "Reporter assay of an androgen receptor responsive sequence (luciferase, transiently transfected HEK293 cells)", "type": "cell-based", "conditions": "24 hours incubation, relative to activity of 100 nM DHT, read-out: AR transcriptive activity (pEC50) (converted)", "outline": "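Agonism scored as pEC50, fitted by 4-parameter curve against the response to 100 nM DHT, from dual-luciferase readout after 24 h compound treatment. Cells were HEK293 co-transfected (3 h) with human AR expression vector, androgen-responsive firefly reporter and Renilla control, in charcoal-stripped serum.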"}, "[1]": {"target": "T2, androgen receptor (AR-LBD) (Rattus norvegicus, UniProt P15207)", "T2 construct": "5 μL of 2×AR-LBD/Fluoromone AL Red Complex contained in the kit; purchased Invitrogen", "T2 sequence (P15207 651-882 limits assumed)": "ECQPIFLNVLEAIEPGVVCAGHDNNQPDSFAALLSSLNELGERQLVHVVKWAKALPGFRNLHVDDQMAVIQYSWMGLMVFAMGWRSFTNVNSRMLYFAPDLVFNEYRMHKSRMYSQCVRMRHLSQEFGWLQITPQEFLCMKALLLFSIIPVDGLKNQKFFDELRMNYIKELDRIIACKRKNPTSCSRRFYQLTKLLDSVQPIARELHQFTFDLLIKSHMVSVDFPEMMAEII", "experiment": "Evaluation of androgen receptor affinity (PolarScreen Androgen Receptor Competitor Assay Kit, Red; fluorescence polarization)", "conditions": "22° C. for 5 hours, relative to binding rate of 1 μM DHT, read-out: AR affinity (pEC50) (converted)", "outline": "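Duplicate wells of test compound were mixed with the kit's rat AR-LBD–Fluoromone AL Red tracer complex and left 5 hours at 22 °C before polarization was read. A 4-parameter fit gave pEC50, with binding rate referenced to 1 μM dihydrotestosterone.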"}}, "data": [{"smiles": "Cc1sc(N(CCc2ccc(Cl)cc2)Cc2ccc(C#N)cc2)nc1C(=O)NS(C)(=O)=O", "note": "[Compound 503, 2-[2-(4-chlorophenyl)ethyl-[(4-cyanophenyl)methyl]amino]-5-methyl-N-methylsulfonyl-thiazole-4-carboxamide]", "values": [{"measurement": "EC50", "setting": "human androgen receptor", "result": 1260, "unit": "nM"}, {"measurement": "EC50", "setting": "[1]", "result": 31.6, "unit": "nM"}]}, {"smiles": "Cc1nc(CN(CCc2ccc(Cl)cc2)c2nc(C(=O)NS(C)(=O)=O)c(C)s2)cs1", "note": "[Compound 504, 2-[2-(4-chlorophenyl)ethyl-[(2-methylthiazol-4-yl)methyl]amino]-5-methyl-N-methylsulfonyl-thiazole-4-carboxamide]", "values": [{"measurement": "EC50", "setting": "human androgen receptor", "result": 631, "unit": "nM"}, {"measurement": "EC50", "setting": "[1]", "result": 63.1, "unit": "nM"}]}, {"smiles": "COc1cccc(CN(CCc2ccc(OC(F)(F)F)cc2)c2nc(C(=O)NS(C)(=O)=O)c(C)s2)n1", "note": "[Compound 505, 2-[(6-methoxy-2-pyridyl)methyl-[2-[4-(trifluoromethoxy)phenyl]ethyl]amino]-5-methyl-N-methylsulfonyl-thiazole-4-carboxamide]", "values": [{"measurement": "EC50", "setting": "human androgen receptor", "result": 2000, "unit": "nM"}, {"measurement": "EC50", "setting": "[1]", "result": 39.8, "unit": "nM"}]}, {"smiles": "Cc1sc(N(CCc2ccc(OC(F)(F)F)cc2)Cc2ccc(C#N)cc2)nc1C(=O)NS(C)(=O)=O", "note": "[Compound 506, 2-[(4-cyanophenyl)methyl-[2-[4-(trifluoromethoxy)phenyl]ethyl]amino]-5-methyl-N-methylsulfonyl-thiazole-4-carboxamide]", "values": [{"measurement": "EC50", "setting": "human androgen receptor", "result": "> 10000", "unit": "nM"}, {"measurement": "EC50", "setting": "[1]", "result": 25.1, "unit": "nM"}]}, {"smiles": "Cc1nc(CN(CCc2ccc(OC(F)(F)F)cc2)c2nc(C(=O)NS(C)(=O)=O)c(C)s2)cs1", "note": "[Compound 507, 5-methyl-N-methylsulfonyl-2-[(2-methylthiazol-4-yl)methyl-[2-[4-(trifluoromethoxy)phenyl]ethyl]amino]thiazole-4-carboxamide]", "values": [{"measurement": "EC50", "setting": "human androgen receptor", "result": 501, "unit": "nM"}, {"measurement": "EC50", "setting": "[1]", "result": 39.8, "unit": "nM"}]}, {"smiles": "Cc1cc(CN(CCc2ccc(Cl)cc2)c2nc(C(=O)NS(C)(=O)=O)c(C)s2)no1", "note": "[Compound 508, 2-[2-(4-chlorophenyl)ethyl-[(5-methylisoxazol-3-yl)methyl]amino]-5-methyl-N-methylsulfonyl-thiazole-4-carboxamide]", "values": [{"measurement": "EC50", "setting": "human androgen receptor", "result": 5010, "unit": "nM"}, {"measurement": "EC50", "setting": "[1]", "result": 316, "unit": "nM"}]}, {"smiles": "Cc1cc(CN(CCc2ccc(OC(F)(F)F)cc2)c2nc(C(=O)NS(C)(=O)=O)c(C)s2)no1", "note": "[Compound 509, 5-methyl-2-[(5-methylisoxazol-3-yl)methyl-[2-[4-(trifluoromethoxy)phenyl]ethyl]amino]-N-methylsulfonyl-thiazole-4-carboxamide]", "values": [{"measurement": "EC50", "setting": "human androgen receptor", "result": "> 10000", "unit": "nM"}, {"measurement": "EC50", "setting": "[1]", "result": 200, "unit": "nM"}]}, {"smiles": "Cc1sc(N(CC2COc3ccccc3C2)c2ccc(C#N)cc2)nc1C(=O)NS(C)(=O)=O", "note": "(stereo not drawn) [Compound 510, 2-[N-(chroman-3-ylmethyl)-4-cyano-anilino]-5-methyl-N-methylsulfonyl-thiazole-4-carboxamide]", "values": [{"measurement": "EC50", "setting": "human androgen receptor", "result": 1260, "unit": "nM"}, {"measurement": "EC50", "setting": "[1]", "result": 126, "unit": "nM"}]}, {"smiles": "Cc1sc(N(Cc2ccc(OC(F)F)cn2)c2ccc(C#N)cc2)nc1C(=O)NS(C)(=O)=O", "note": "[Compound 511, 2-[4-cyano-N-[[5-(difluoromethoxy)-2-pyridyl]methyl]anilino]-5-methyl-N-methylsulfonyl-thiazole-4-carboxamide]", "values": [{"measurement": "EC50", "setting": "human androgen receptor", "result": 316, "unit": "nM"}, {"measurement": "EC50", "setting": "[1]", "result": 158, "unit": "nM"}]}, {"smiles": "Cc1sc(N(CCc2ccc(OC(F)(F)F)cc2)Cc2ccc(Cl)cn2)nc1C(=O)NS(C)(=O)=O", "note": "[Compound 512, 2-[(5-chloro-2-pyridyl)methyl-[2-[4-(trifluoromethoxy)phenyl]ethyl]amino]-5-methyl-N-methylsulfonyl-thiazole-4-carboxamide]", "values": [{"measurement": "EC50", "setting": "human androgen receptor", "result": 1260, "unit": "nM"}, {"measurement": "EC50", "setting": "[1]", "result": 100, "unit": "nM"}]}, {"smiles": "Cc1nc(CN(CCc2ccc(OC(F)F)cc2)c2nc(C(=O)NS(C)(=O)=O)c(C)s2)cs1", "note": "[Compound 513, 2-[2-[4-(difluoromethoxy)phenyl]ethyl-[(2-methylthiazol-4-yl)methyl]amino]-5-methyl-N-methylsulfonyl-thiazole-4-carboxamide]", "values": [{"measurement": "EC50", "setting": "human androgen receptor", "result": 1580, "unit": "nM"}, {"measurement": "EC50", "setting": "[1]", "result": 200, "unit": "nM"}]}, {"smiles": "Cc1sc(N(Cc2ccc(C(F)(F)F)cn2)c2ccc(C#N)cc2)nc1C(=O)NS(C)(=O)=O", "note": "[Compound 514, 2-[4-cyano-N-[[5-(trifluoromethyl)-2-pyridyl]methyl]anilino]-5-methyl-N-methylsulfonyl-thiazole-4-carboxamide]", "values": [{"measurement": "EC50", "setting": "human androgen receptor", "result": 158, "unit": "nM"}, {"measurement": "EC50", "setting": "[1]", "result": 126, "unit": "nM"}]}]}
